Experiments:
[1] = biological target: T1, hCA I (Homo sapiens, UniProt P00915); test: CA inhibition, stopped-flow CO2 hydrase assay; format: biochemical; conditions: stopped-flow technique; incubation time 6 h; mean of 3 assays
T1 construct: made in house
Method: (§1) Four hCA isoforms were used in this assay: the cytosolic hCA I and II and the tumor-associated transmembrane hCA IX and XII isoforms. Acetazolamide (AAZ) was used as a standard inhibitor.
(§2) An SX.18MV-R Applied Photophysics (Oxford, UK) stopped-flow instrument has been used to assay the catalytic/inhibition of various CA isozymes. […] Saturated CO2 solutions in water at 25 °C were used as substrate. Stock solutions of inhibitors were prepared at a concentration of 10 μM (in DMSO-water 1:1, v/v) and dilutions up to 0.01 nM were carried out with the assay buffer mentioned above. […] Inhibitor and enzyme solutions were preincubated together for 6 h at room temperature prior to assay in order to allow for the formation of the E-I complex. […] The inhibition constants were obtained by non-linear least-squares methods using the Cheng–Prusoff equation, as reported earlier, and represent the mean from at least three different determinations.

[2] = biological target: T2, hCA II (Homo sapiens, UniProt P00918); test: CA inhibition, stopped-flow CO2 hydrase assay; format: biochemical; conditions: stopped-flow technique; incubation time 6 h; mean of 3 assays
T2 construct: made in house
Method: as §1, §2

[3] = biological target: T3, hCA IX (Homo sapiens, UniProt Q16790); test: CA inhibition, stopped-flow CO2 hydrase assay; format: biochemical; conditions: stopped-flow technique; incubation time 6 h; mean of 3 assays
T3 construct: made in house
Method: as §1, §2

[4] = biological target: T4, hCA XII (Homo sapiens, UniProt O43570); test: CA inhibition, stopped-flow CO2 hydrase assay; format: biochemical; conditions: stopped-flow technique; incubation time 6 h; mean of 3 assays
T4 construct: made in house
T4 sequence (O43570 25-354): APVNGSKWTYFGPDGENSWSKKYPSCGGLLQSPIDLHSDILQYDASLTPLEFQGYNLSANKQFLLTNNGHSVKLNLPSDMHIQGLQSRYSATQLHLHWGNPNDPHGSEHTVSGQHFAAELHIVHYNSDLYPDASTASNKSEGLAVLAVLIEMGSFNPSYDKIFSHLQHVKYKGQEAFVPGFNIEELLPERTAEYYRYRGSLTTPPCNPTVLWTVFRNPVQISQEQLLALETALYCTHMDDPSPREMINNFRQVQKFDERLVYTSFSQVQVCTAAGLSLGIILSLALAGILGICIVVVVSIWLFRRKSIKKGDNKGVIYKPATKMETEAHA
Method: as §1, §2

[5] = tested on: K562/DOX cells; test: Doxorubicin cytotoxicity enhancement assay (MTT); format: cell-based, human; conditions: 72 h
Method: K562 is a highly undifferentiated erythroleukemia cell line. The doxorubicin-resistant K562/DOX cells overexpress almost exclusively the transporter membrane protein P-gp.
K562/DOX cells were incubated for 72 h with different concentrations of doxorubicin in combination with 1 or 3 µM of all compounds. […] HT29, A549, HT29/DOX and A549/DOX cells were incubated for 48 h with 5 µM doxorubicin, alone or in combination with 1 or 3 µM of selected compounds. Cell viability of the cell lines was measured by the MTT assay, using a Synergy HT microplate spectrofluorometer (Bio-Tek Instruments, Winooski, VT, USA). The absorbance of untreated cells was considered 100%; results were expressed as a percentage of viable treated cells versus the control untreated cells.

T1 sequence (P00915 whole entry): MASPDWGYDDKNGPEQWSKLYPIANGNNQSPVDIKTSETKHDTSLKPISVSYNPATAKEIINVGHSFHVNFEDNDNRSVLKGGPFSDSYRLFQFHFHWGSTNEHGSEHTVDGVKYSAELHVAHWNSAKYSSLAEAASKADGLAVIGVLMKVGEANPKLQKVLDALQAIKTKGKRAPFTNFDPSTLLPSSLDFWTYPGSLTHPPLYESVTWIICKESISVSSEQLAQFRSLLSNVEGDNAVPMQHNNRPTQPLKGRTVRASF

Ki [1] [µM] | Ki [2] [µM] | Ki [3] [nM] | Ki [4] [nM] | SMILES | RF (Reversal Fold: IC50 of doxorubicin alone / in presence of modulator) ([5]; compound at 1 µM) | RF (Reversal Fold: IC50 of doxorubicin alone / in presence of modulator) ([5]; compound at 3 µM)
> 10 | > 10 | 666 | 851 | COc1ccc(C(CCCN2CCN(CCOc3ccc4oc(=O)cc(C)c4c3)CC2)c2ccc(OC)cc2)cc1 [Compound 34, 6-(2-(4-(4,4-Bis(4-methoxyphenyl)butyl)piperazin-1-yl)ethoxy)-4-methyl-2H-chromen-2-one] | 5.7 | 14.3
> 10 | > 10 | 135 | 103 | COc1ccc(C(CCCN2CCN(CCOc3ccc4c(C)cc(=O)oc4c3)CC2)c2ccc(OC)cc2)cc1 [Compound 28, 7-(2-(4-(4,4-Bis(4-methoxyphenyl)butyl)piperazin-1-yl)ethoxy)-4-methyl-2H-chromen-2-one] | – | –
> 10 | > 10 | 8.2 | 51.9 | COc1cc(CN2CCN(CCOc3ccc4c(C)cc(=O)oc4c3)CC2)cc(OC)c1OC [Compound 16, 4-Methyl-7-(2-(4-(3,4,5-trimethoxybenzyl)piperazin-1-yl)ethoxy)-2H-chromen-2-one] | 1.0 | 1.4
> 10 | > 10 | 153 | 115 | COc1ccc(C(CCCN2CCN(CCCOc3ccc4ccc(=O)oc4c3)CC2)c2ccc(OC)cc2)cc1 [Compound 26, 7-(3-(4-(4,4-Bis(4-methoxyphenyl)butyl)piperazin-1-yl)propoxy)-2H-chromen-2-one] | 5.5 | 17.3
> 10 | > 10 | 302 | 441 | COc1cc(/C=C/CN2CCN(CCCOc3ccc4oc(=O)cc(C)c4c3)CC2)cc(OC)c1OC [Compound 11, (E)-4-Methyl-6-(3-(4-(3-(3,4,5-trimethoxyphenyl)allyl)piperazin-1-yl)propoxy)-2H-chromen-2-one] | 2.4 | 4.1
> 10 | > 10 | 409 | 229 | COc1cc(CN2CCN(CCOc3ccc4oc(=O)cc(C)c4c3)CC2)cc(OC)c1OC [Compound 22, 4-Methyl-6-(2-(4-(3,4,5-trimethoxybenzyl)piperazin-1-yl)ethoxy)-2H-chromen-2-one] | 2.8 | 2.7
> 10 | > 10 | 115 | 90.7 | COc1ccc(C(CCCN2CCN(CCOc3ccc4oc(=O)ccc4c3)CC2)c2ccc(OC)cc2)cc1 [Compound 31, 6-(2-(4-(4,4-Bis(4-methoxyphenyl)butyl)piperazin-1-yl)ethoxy)-2H-chromen-2-one] | 3.0 | 11.4
> 10 | > 10 | 72 | 22.4 | COc1cc(CN2CCN(CCCOc3ccc4oc(=O)ccc4c3)CC2)cc(OC)c1OC [Compound 20, 6-(3-(4-(3,4,5-Trimethoxybenzyl)piperazin-1-yl)propoxy)-2H-chromen-2-one] | 2.3 | 2.4
> 10 | > 10 | 242 | 304 | COc1cc(CN2CCN(CCCOc3ccc4oc(=O)cc(C)c4c3)CC2)cc(OC)c1OC [Compound 23, 4-Methyl-6-(3-(4-(3,4,5-trimethoxybenzyl)piperazin-1-yl)propoxy)-2H-chromen-2-one] | 1.6 | 1.8
> 10 | > 10 | 16.1 | 60.8 | COc1cc(CN2CCN(CCCOc3ccc4c(C)cc(=O)oc4c3)CC2)cc(OC)c1OC [Compound 17, 4-Methyl-7-(3-(4-(3,4,5-trimethoxybenzyl)piperazin-1-yl)propoxy)-2H-chromen-2-one] | 2.6 | 2.1
> 10 | > 10 | 360 | 422 | COc1cc(/C=C/CN2CCN(CCOc3ccc4oc(=O)cc(C)c4c3)CC2)cc(OC)c1OC [Compound 10, (E)-4-Methyl-6-(2-(4-(3-(3,4,5-trimethoxyphenyl)allyl)piperazin-1-yl)ethoxy)-2H-chromen-2-one] | 1.0 | 1.4

SMILES | Ki [1] [µM] | Ki [2] [µM] | Ki [3] [nM] | Ki [4] [nM] | RF (Reversal Fold: IC50 of doxorubicin alone / in presence of modulator) ([5]; compound at 1 µM) | RF (Reversal Fold: IC50 of doxorubicin alone / in presence of modulator) ([5]; compound at 3 µM)
COc1cc(CN2CCN(CCCCOc3ccc4oc(=O)ccc4c3)CC2)cc(OC)c1OC [Compound 21, 6-(4-(4-(3,4,5-Trimethoxybenzyl)piperazin-1-yl)butoxy)-2H-chromen-2-one] | > 10 | > 10 | 50.3 | 15.9 | 3.9 | 4.1
COc1cc(/C=C/CN2CCN(CCCCOc3ccc4ccc(=O)oc4c3)CC2)cc(OC)c1OC [Compound 3, (E)-7-(4-(4-(3-(3,4,5-Trimethoxyphenyl)allyl)piperazin-1-yl)butoxy)-2H-chromen-2-one] | > 10 | > 10 | 82 | 34.6 | 3.1 | 3.7
COc1cc(CN2CCN(CCCCOc3ccc4oc(=O)cc(C)c4c3)CC2)cc(OC)c1OC [Compound 24, 4-Methyl-6-(4-(4-(3,4,5-trimethoxybenzyl)piperazin-1-yl)butoxy)-2H-chromen-2-one] | > 10 | > 10 | 205 | 99.5 | 1.4 | 2.5
COc1ccc(C(CCCN2CCN(CCCCOc3ccc4c(C)cc(=O)oc4c3)CC2)c2ccc(OC)cc2)cc1 [Compound 30, 7-(4-(4-(4,4-Bis(4-methoxyphenyl)butyl)piperazin-1-yl)butoxy)-4-methyl-2H-chromen-2-one] | > 10 | > 10 | 124 | 82.4 | 7.7 | –
COc1cc(CN2CCN(CCCCOc3ccc4c(C)cc(=O)oc4c3)CC2)cc(OC)c1OC [Compound 18, 4-Methyl-7-(4-(4-(3,4,5-trimethoxybenzyl)piperazin-1-yl)butoxy)-2H-chromen-2-one] | > 10 | > 10 | 28.5 | 72.1 | 1.9 | 3.2
COc1cc(/C=C/CN2CCN(CCCCOc3ccc4c(C)cc(=O)oc4c3)CC2)cc(OC)c1OC [Compound 6, (E)-4-Methyl-7-(4-(4-(3-(3,4,5-trimethoxyphenyl)allyl)piperazin-1-yl)butoxy)-2H-chromen-2-one] | > 10 | > 10 | 58.9 | 44.8 | 6.3 | 6.7

— publication PMC11279465, “Dual Inhibitors of P-gp and Carbonic Anhydrase XII (hCA XII) against Tumor Multidrug Resistance with Piperazine Scaffold” (Molecules, 2024)
